Laboratory results from patent publication US20060020004A1, “Isoxazolidine compounds for treatment of bacterial infections” (Infinity Pharmaceuticals, Inc., priority 2004, published 2006).
In brackets after ≈: the same amount, converted by molar mass.

Key:
[1] = test system: Methicillin resistant S. aureus ATCC 33591; assay: MIC determination, MRSA; type: cell-based, Staphylococcus aureus; conditions: MRSA ATCC 33591, 24 h; for MIC: Staphylococcus aureus
Experimental: (§1) Susceptibility testing for bacterial cultures is performed according to the National Council for Clinical Laboratory Standards (NCCLS) protocol M100-S12, “Performance Standards for Antimicrobial Susceptibility Testing.” The bacterial strains recommended by NCCLS were obtained from the American Type Culutre Collection (ATCC) (Table) and were maintained on Mueller Hinton (MHA) agar plates plus or minus 3% lysed horse blood (see Table). The bacteria were grown in Cation adjusted Mueller Hinton Broth (CaMHB) for liquid growth and susceptibility testing. S. cerevisiae (yeast) is grown in yeast peptone dextrose (YPD) media.
(§2) All bacterial cultures were grown at 37 degrees Celsius. Fresh colonies of S. aureus and MRSA were inoculated into liquid media and grown overnight and diluted the next day to grow to mid-log (Table 2). E. faecalis and S. pneumonia mid-log cultures were started directly from colony on plates. To attain mid-log growth, cultures were grown to an optical density (OD) at A590 of 0.2-0.8 (see Table 2) and then diluted to proper OD to obtain 5×10^5 cells/mL.
(§3) Diluted bacterial cultures are added to compound plates with compound diluted 2-fold from 100 μg/mL to 0.2 μg/mL final concentration in DMSO. Control antibiotics are also added: vancomycin, linezolid, and penicillin. In 384 well plates, 0.5 μL compound is added followed by addition of 50 μL of culture. DMSO alone is included as a control. Plates incubated at 37 degrees Celsius for 17-24 h.
(§4) Plates with cells mixed with compounds are incubated for 17 h for S. aureus and yeast, 24 h for MRSA, and all Enterococcus and Streptococcus strains. Yeast plates are incubated […].
(§5) Viability is determined by reading plates at A590 to determine optical density of treated and untreated cells and determining growth inhibition relative to controls.

[2] = test system: Staphylococcus aureus (Smith) ATCC 19636; assay: MIC determination, S. aureus; type: cell-based; conditions: S. aureus ATCC 19636, 17 h; for MIC: Staphylococcus aureus, ATCC19636
Experimental: as §1, §2, §3, §4, §5

[3] = test system: Penicillin-res. S. pneumonia ATCC 700671; assay: MIC determination, PRSP; type: cell-based, Streptococcus pneumonia; conditions: ATCC 700671, 24 h; for MIC: Streptococcus pneumoniae
Experimental: as §1, §2, §3, §4, §5

Row | MIC [1] [µg/mL] | MIC [2] [µg/mL] | MIC [3] [µg/mL] | SMILES | MIC MRSA [1] | MIC S. aureus [2] | MIC PRSP [3]
1 | – | – | – | CC(O)C1ON(Cc2ccc(-c3ccc(Cl)cc3)cc2)C(C(=O)NCCc2c[nH]c3ccccc23)C1CO (stereo not drawn) | ** (the MIC is 5-90 μg/mL) | ** (the MIC is 5-90 μg/mL) | ** (the MIC is 5-90 μg/mL)
2 | < 5 | < 5 | 5 to 90 (≈ 8.85 to 159 µM) | Cc1ccc(C#Cc2ccc(CN3O[C@@H]([C@@H](C)O)[C@@H](CN(C)C)[C@H]3C(=O)NCCc3c[nH]c4ccccc34)cc2)cc1 | – | – | –
3 | – | – | – | CC(O)C1ON(Cc2ccc(-c3ccc(C(C)(C)C)cc3)cc2)C(C(=O)NCCc2c[nH]c3ccccc23)C1CO (stereo not drawn) | * (the MIC is >90 μg/mL) | ** (the MIC is 5-90 μg/mL) | ** (the MIC is 5-90 μg/mL)
4 | 5 to 90 | 5 to 90 | 5 to 90 | Cc1ccc(C#Cc2ccc(CN3O[C@@H]([C@@H](C)O)[C@@H](CN(C)C)[C@@H]3C(=O)NCCc3c[nH]c4ccccc34)cc2)cc1.Cl | – | – | –
5 | – | – | – | Cc1ccc(C#Cc2ccc(CN3OC(C(C)O)C(CO)C3C(=O)NCCc3c[nH]c4cc(F)ccc34)cc2)cc1 (stereo not drawn) | *** (the MIC is less than 5 μg/mL) | *** (the MIC is less than 5 μg/mL) | ** (the MIC is 5-90 μg/mL)
6 | – | – | – | CC(O)C1ON(Cc2ccc(C#Cc3ccc(C(=O)O)cc3)cc2)C(C(=O)NCCc2c[nH]c3ccccc23)C1CO (stereo not drawn) | * (the MIC is >90 μg/mL) | * (the MIC is >90 μg/mL) | * (the MIC is >90 μg/mL)
7 | – | – | – | CC(O)C1ON(Cc2ccc(-c3ccc(Oc4ccccc4)cc3)cc2)C(C(=O)NCCc2c[nH]c3ccccc23)C1CO (stereo not drawn) | ** (the MIC is 5-90 μg/mL) | ** (the MIC is 5-90 μg/mL) | ** (the MIC is 5-90 μg/mL)
8 | – | – | – | CCCCCCN1O[C@@H]([C@H](C)O)[C@@H](CO)[C@H]1C(=O)NCCc1c[nH]c2ccccc12 | * (the MIC is >90 μg/mL) | * (the MIC is >90 μg/mL) | * (the MIC is >90 μg/mL)
9 | – | – | – | Cc1ccc(C#Cc2ccc(CN3OC(C(C)O)C(COC(=O)CN(C)C)C3C(=O)NCCc3c[nH]c4ccccc34)cc2)cc1 (stereo not drawn) | ** (the MIC is 5-90 μg/mL) | – | ** (the MIC is 5-90 μg/mL)
10 | – | – | – | CC(O)C1ON(Cc2ccc(Oc3ccccc3)cc2)C(C(=O)NCCc2c[nH]c3ccccc23)C1CO (stereo not drawn) | ** (the MIC is 5-90 μg/mL) | ** (the MIC is 5-90 μg/mL) | ** (the MIC is 5-90 μg/mL)
11 | < 5 | 5 to 90 (≈ 9.55 to 172 µM) | – | Cc1ccc(C#Cc2ccc(CN3O[C@@H]([C@@H](C)O)[C@@H](CO)[C@H]3CNCCc3c[nH]c4ccccc34)cc2)cc1 | – | – | –
12 | – | – | – | CC(O)C1ON(Cc2ccc(-c3cc4ccccc4o3)cc2)C(C(=O)NCCc2c[nH]c3ccccc23)C1CO (stereo not drawn) | ** (the MIC is 5-90 μg/mL) | ** (the MIC is 5-90 μg/mL) | ** (the MIC is 5-90 μg/mL)
13 | 5 to 90 (≈ 9.6 to 173 µM) | 5 to 90 (≈ 9.6 to 173 µM) | 5 to 90 (≈ 9.6 to 173 µM) | Cc1ccc(C#Cc2ccc(CN3OC[C@H](CN(C)C)[C@H]3C(=O)NCCc3c[nH]c4ccccc34)cc2)cc1 | – | – | –
14 | – | – | – | COc1ccc2[nH]cc(CCNC(=O)C3C(CO)C(C(C)O)ON3Cc3ccc(C#Cc4ccc(C)cc4)cc3)c2c1 (stereo not drawn) | * (the MIC is >90 μg/mL) | ** (the MIC is 5-90 μg/mL) | ** (the MIC is 5-90 μg/mL)
15 | 5 to 90 (≈ 9.3 to 167 µM) | 5 to 90 (≈ 9.3 to 167 µM) | 5 to 90 (≈ 9.3 to 167 µM) | Cc1ccc(C#Cc2ccc(CC3O[C@H]([C@@H](C)O)[C@H](CO)[C@@H]3C(=O)NCCc3nc4ccccc4[nH]3)cc2)cc1 (stereo partly drawn) | – | – | –
16 | > 90 | > 90 | > 90 | Cc1ccc(C#Cc2ccc(CN3O[C@H]([C@@H](C)O)[C@H](CO)[C@@H]3C(=O)NCCN3CCCC3)cc2)cc1 | – | – | –
17 | – | – | – | CC(O)C1ON(Cc2cccc(-c3ccc(C(C)(C)C)cc3)c2)C(C(=O)NCCc2c[nH]c3ccccc23)C1CO (stereo not drawn) | *** (the MIC is less than 5 μg/mL) | *** (the MIC is less than 5 μg/mL) | ** (the MIC is 5-90 μg/mL)
18 | – | – | – | Cc1ccc(C#Cc2ccc(CN3OC(C(C)O)C(CO)C3CNCCc3c[nH]c4ccccc34)cc2)cc1 (stereo not drawn) | ** (the MIC is 5-90 μg/mL) | ** (the MIC is 5-90 μg/mL) | * (the MIC is >90 μg/mL)
19 | – | – | – | Cc1ccc(C#Cc2ccc(CN3OCC(CO)C3C(=O)NCCc3c[nH]c4ccccc34)cc2)cc1 (stereo not drawn) [drawing 212] | *** (the MIC is less than 5 μg/mL) | – | ** (the MIC is 5-90 μg/mL)
